Data reported in patent EP4603105A1, “PHARMACEUTICAL COMPOSITION CONTAINING CYCLIC COMPOUND HAVING SELECTIVE KRAS INHIBITORY EFFECT AGAINST HRAS AND NRAS” (CHUGAI SEIYAKU KABUSHIKI KAISHA, priority 2022, dated 2024).
pIC50: −log10 of the molar value. *1 amine or outer side, *2 acyl side, *3 side chain or, on linkers, in order; H or OH if unused. Where a SMILES comes first, the peptide text is derived from it. Bridges are numbered along the chain shown (N, C = ends). [ ]: non-standard residue; d: D form. The star is where a group is joined. hPhe(3-Cl-4-CF3) = N[C@@H](CCc1ccc(C(F)(F)F)c(Cl)c1)C(=O)O; X19 = O=C([C@H](Cc1ccc(C(F)(F)F)cc1)N(CCCF)[*:1])[*:2]; NPrPhe(4-CF3) = CCCN[C@@H](Cc1ccc(C(F)(F)F)cc1)C(=O)O; X32 = Cc1ccc(C[C@@H](C(=O)[*:2])N(CC2CCCC2)[*:1])cc1; X49 = Cc1ccc(C[C@@H](C(=O)[*:2])N(CC2CC2)[*:1])cc1; NMeGly(cPent) = CN[C@H](C(=O)O)C1CCCC1; Pro(4,4-F2) = O=C(O)[C@@H]1CC(F)(F)CN1; NMeD = CN[C@@H](CC(=O)O)C(=O)O; NMeL = CN[C@@H](CC(C)C)C(=O)O; Morpholide = C1CN(*)CCO1; NMeA = CN[C@@H](C)C(=O)O; Ac5c = NC1(C(=O)O)CCCC1; Aze = O=C(O)[C@@H]1CCN1; Sar = CNCC(=O)O

How the values were obtained:
[1] = target: GDP-bound NRAS wild-type protein (Homo sapiens, UniProt P01111); experiment: Binding to NRAS by surface plasmon resonance (SPR), KD and KD ratio to KRAS
Summary of the method: (§1)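 GDP-bound biotin-Avi RAS captured at ~100–300 RU, 30°C, pH 7.4 HBS containing 10 µM GDP, 10 mM MgCl2, 1 mM DTT, 0.01% Tween 20 and 4% DMSO. KD by 1:1 fitting.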

[2] = test system: human lung cancer strain NCI-H441; format: cell-based
Summary of the method: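 Readout: […] after the ATP-based reagent. Compound: serial dilutions in dimethyl sulfoxide.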

HRAS wild-type protein = HRAS wild-type protein (Homo sapiens, UniProt P01112); experiment: Binding to HRAS by surface plasmon resonance (SPR), KD and KD ratio to KRAS
Summary of the method: as §1

[3] = ratio of the KD value with respect to GDP-bound NRAS wild-type protein to the KD value with respect to KRAS
[4] = ratio of the KD value with respect to HRAS wild-type protein to the KD value with respect to KRAS
[5] = ratio of KD for GDP-bound NRAS wild-type protein to KD for KRAS
[6] = ratio of KD for HRAS wild-type protein to KD for KRAS
[7] = ratio of KD value for GDP-bound NRAS wild-type protein to KD value for KRAS (SPR)
[8] = ratio of KD value for HRAS wild-type protein to KD value for KRAS (SPR)
[9] = ratio of KD with respect to GDP-bound NRAS wild-type protein to KD with respect to KRAS
[10] = ratio of KD with respect to HRAS wild-type protein to KD with respect to KRAS

Sequence of GDP-bound NRAS wild-type protein (P01111 whole entry): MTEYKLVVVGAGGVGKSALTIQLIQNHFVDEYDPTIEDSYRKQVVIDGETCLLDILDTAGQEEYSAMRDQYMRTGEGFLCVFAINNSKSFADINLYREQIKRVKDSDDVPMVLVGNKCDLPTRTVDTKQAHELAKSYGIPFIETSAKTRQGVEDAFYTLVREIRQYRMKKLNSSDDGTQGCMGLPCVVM
Sequence of HRAS wild-type protein (P01112 whole entry): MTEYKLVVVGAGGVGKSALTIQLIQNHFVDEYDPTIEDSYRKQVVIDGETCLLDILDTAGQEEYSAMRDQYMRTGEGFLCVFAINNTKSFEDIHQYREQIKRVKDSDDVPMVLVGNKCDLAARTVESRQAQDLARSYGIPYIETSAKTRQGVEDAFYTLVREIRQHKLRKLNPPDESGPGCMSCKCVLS

SMILES: CC[C@H](C)[C@@H]1NC(=O)[C@H](CC(C)C)N(C)C(=O)C[C@@H](C(=O)N2CCOCC2)N(C)C(=O)[C@H](C2CCCC2)N(C)C(=O)C2(CCCC2)NC(=O)[C@@H]2CCCN2C(=O)[C@H](CCc2ccc(C(F)(F)F)c(Cl)c2)NC(=O)CN(C)C(=O)[C@H](Cc2ccc(C(F)(F)F)cc2)N(CCCF)C(=O)CN(C)C(=O)CN(C)C1=O [PP0524] ([NMeL]I[Sar][Sar][X19][Sar][hPhe(3-Cl-4-CF3)]P[Ac5c][NMeGly(cPent)][NMeD]-Morpholide; lactam N-11)
- NRAS /KRAS [1, 3]: B (a compound having 3 or more and less than 10 is denoted as B)
- pIC50 [2]: 8.32
- HRAS /KRAS (HRAS wild-type protein; [4]): C (A compound having a KD ratio of 0.1 or more and less than 3 is denoted as C)

SMILES: CCO[C@@H]1C[C@H]2C(=O)NC3(CCC3)C(=O)N(C)[C@@H](C3CCCC3)C(=O)N(C)[C@H](C(=O)N(C)C)CC(=O)N(C)[C@@H](CC)C(=O)N[C@@H]([C@@H](C)CC)C(=O)N(C)CC(=O)N(C)[C@H]3CCCCN(C3=O)[C@@H](Cc3ccc(C(F)(F)F)cc3)C(=O)N(C)CC(=O)N[C@@H](CCc3ccc4sccc4c3)C(=O)N2C1 [PP0887]
- NRAS /KRAS [1, 5]: C (A compound having a KD ratio of 0.1 or more and less than 3 is denoted as C)
- pIC50 [2]: 7.72
- HRAS /KRAS (HRAS wild-type protein; [6]): C (A compound having a KD ratio of 0.1 or more and less than 3 is denoted as C)

SMILES: CCCN1C(=O)CN(C)C(=O)CNC(=O)[C@H]([C@@H](C)CC)NC(=O)[C@H](CC(C)C)N(C)C(=O)C[C@@H](C(=O)N(C)C)N(C)C(=O)[C@H](C2CCCC2)N(C)C(=O)C2(CCCC2)NC(=O)[C@@H]2CC(F)(F)CN2C(=O)[C@H](CCc2ccc(C(F)(F)F)c(Cl)c2)NC(=O)CN(C)C(=O)[C@@H]1Cc1ccc(C(F)(F)F)cc1 [PP0419] ([NMeL]IG[Sar][NPrPhe(4-CF3)][Sar][hPhe(3-Cl-4-CF3)][Pro(4,4-F2)][Ac5c][NMeGly(cPent)][NMeD]-NMe2; lactam N-11)
- NRAS /KRAS [1, 3]: B (a compound having 3 or more and less than 10 is denoted as B)
- pIC50 [2]: 8.38
- HRAS /KRAS (HRAS wild-type protein; [4]): C (A compound having a KD ratio of 0.1 or more and less than 3 is denoted as C)

SMILES: CCO[C@@H]1C[C@H]2C(=O)NC3(CCC3)C(=O)N(C)[C@@H](C3CCCC3)C(=O)N(C)[C@H](C(=O)N(C)C)CC(=O)N(C)[C@@H](Cc3cccc(F)c3)C(=O)N[C@@H]([C@@H](C)CC)C(=O)N(C)CC(=O)N(C)[C@H]3C/C=C\CCN(C3=O)[C@@H](Cc3ccc(C(F)(F)F)cc3)C(=O)N(C)CC(=O)N[C@@H](CCc3cc(F)c(C(F)(F)F)c(F)c3)C(=O)N2C1 [PP1126]
- NRAS /KRAS [1, 5]: A (a compound having 10 or more and less than 20 is denoted as A)
- pIC50 [2]: 8.15
- HRAS /KRAS (HRAS wild-type protein; [6]): A (a compound having 10 or more and less than 20 is denoted as A)

SMILES: CC[C@H](C)[C@@H]1NC(=O)[C@H](CC2CC2)N(C)C(=O)C[C@@H](C(=O)N(C)C)N(C)C(=O)[C@H](C2CCCC2)N(C)C(=O)C2(CCCC2)NC(=O)[C@@H]2C[C@H](C)CN2C(=O)[C@H](CCc2cc(F)c(C(F)(F)F)c(F)c2)NC(=O)CN(C)C(=O)[C@H](Cc2ccc(C(F)(F)F)cc2)N2CC/C=C\C[C@@H](C2=O)N(C)C(=O)CN(C)C1=O [PP1511]
- NRAS /KRAS [1, 7]: AA (a compound having 20 or more is denoted as AA)
- pIC50 [2]: 7.86
- HRAS /KRAS (HRAS wild-type protein; [8]): A (a compound having 10 or more and less than 20 is denoted as A)

SMILES: CCC[C@H]1C(=O)N[C@@H]([C@@H](C)CC)C(=O)N(C)CC(=O)N(C)[C@H]2C/C=C\CCN(C2=O)[C@@H](Cc2ccc(C(F)(F)F)cc2)C(=O)N(C)CC(=O)N[C@@H](CCc2cc(F)c(C(F)(F)F)c(F)c2)C(=O)N2C[C@H](OCC)C[C@H]2C(=O)NC2(CCC2)C(=O)N(C)[C@@H](C2CCCC2)C(=O)N(C)[C@H](C(=O)N(C)CCOC)CC(=O)N1C [PP1331]
- NRAS /KRAS [1, 9]: A (a compound having 10 or more and less than 20 is denoted as A)
- pIC50 [2]: 7.86
- HRAS /KRAS (HRAS wild-type protein; [10]): A (a compound having 10 or more and less than 20 is denoted as A)

SMILES: CCC(CC)[C@H]1C(=O)N(C)[C@H](C(=O)N(C)C)CC(=O)N(C)[C@@H](COC)C(=O)N[C@@H]([C@@H](C)CC)C(=O)N(C)CC(=O)N(C)[C@H]2C/C=C\CCN(C2=O)[C@@H](Cc2ccc(C)cc2)C(=O)N(C)CC(=O)N[C@@H](CCc2ccc(Cl)c(Cl)c2)C(=O)N2C[C@H](OC3CCCC3)C[C@H]2C(=O)N(C)C2(CC(C)(C)C2)C(=O)N1C [PP2818]
- NRAS /KRAS [1, 5]: A (a compound having 10 or more and less than 20 is denoted as A)
- pIC50 [2]: 7.11
- HRAS /KRAS (HRAS wild-type protein; [6]): A (a compound having 10 or more and less than 20 is denoted as A)

SMILES: CC[C@H](C)[C@@H]1NC(=O)[C@H](CC(C)C)N(C)C(=O)C[C@@H](C(=O)N2CCOCC2)N(C)C(=O)[C@H](C2CCCC2)N(C)C(=O)C2(CCCC2)NC(=O)[C@@H]2CCCN2C(=O)[C@H](CCc2ccc(C(F)(F)F)c(Cl)c2)NC(=O)CN(C)C(=O)[C@H](Cc2ccc(C)cc2)N(CC2CC2)C(=O)[C@@H]2CCN2C(=O)[C@H](C)N(C)C1=O [PP0057] ([NMeL]I[NMeA][Aze][X49][Sar][hPhe(3-Cl-4-CF3)]P[Ac5c][NMeGly(cPent)][NMeD]-Morpholide; lactam N-11)
- NRAS /KRAS [1, 5]: C (A compound having a KD ratio of 0.1 or more and less than 3 is denoted as C)
- pIC50 [2]: 8.21
- HRAS /KRAS (HRAS wild-type protein; [6]): B (a compound having 3 or more and less than 10 is denoted as B)

SMILES: CCO[C@@H]1C[C@H]2C(=O)NC3(CCC3)C(=O)N(C)[C@@H](C3CCCC3)C(=O)N(C)[C@H](C(=O)N(C)CCOC)CC(=O)N(C)[C@@H](CC)C(=O)N[C@@H]([C@@H](C)CC)C(=O)N(C)CC(=O)N(C)[C@H]3C/C=C\CCN(C3=O)[C@@H](Cc3ccc(C(F)(F)F)cc3)C(=O)N(C)CC(=O)N[C@@H](CCc3cc(F)c(C(F)(F)F)c(F)c3)C(=O)N2C1 [PP1316]
- NRAS /KRAS [1, 9]: A (a compound having 10 or more and less than 20 is denoted as A)
- pIC50 [2]: 7.88
- HRAS /KRAS (HRAS wild-type protein; [10]): A (a compound having 10 or more and less than 20 is denoted as A)

SMILES: CC[C@H](C)[C@@H]1NC(=O)[C@H](CC2CC2)N(C)C(=O)C[C@@H](C(=O)N(C)C)N(C)C(=O)[C@H](C2CCCC2)N(C)C(=O)C2(CCC2)N(C)C(=O)[C@@H]2CCCN2C(=O)[C@H](CCc2cc(F)c(C(F)(F)F)c(F)c2)NC(=O)CN(C)C(=O)[C@H](Cc2ccc(C)cc2)N2CC/C=C\C[C@@H](C2=O)N(C)C(=O)[C@@H]2CCCN2C1=O [PP1798]
- NRAS /KRAS [1, 7]: A (a compound having 10 or more and less than 20 is denoted as A)
- pIC50 [2]: 8.11
- HRAS /KRAS (HRAS wild-type protein; [8]): B (a compound having 3 or more and less than 10 is denoted as B)

SMILES: CCCN1C(=O)[C@@H]2CCN2C(=O)CN(C)C(=O)[C@H]([C@@H](C)CC)NC(=O)[C@H](CC(C)C)N(C)C(=O)C[C@@H](C(=O)N(C)C)N(C)C(=O)[C@H](C2CCCC2)N(C)C(=O)C2(CCCC2)NC(=O)[C@@H]2CCCN2C(=O)[C@H](CCc2ccc(C(F)(F)F)c(Cl)c2)NC(=O)CN(C)C(=O)[C@@H]1Cc1ccc(C(F)(F)F)cc1 [PP0440] ([NMeL]I[Sar][Aze][NPrPhe(4-CF3)][Sar][hPhe(3-Cl-4-CF3)]P[Ac5c][NMeGly(cPent)][NMeD]-NMe2; lactam N-11)
- NRAS /KRAS [1, 3]: C (A compound having a KD ratio of 0.1 or more and less than 3 is denoted as C)
- pIC50 [2]: 8.36
- HRAS /KRAS (HRAS wild-type protein; [4]): B (a compound having 3 or more and less than 10 is denoted as B)

SMILES: CCC[C@H]1C(=O)N[C@@H]([C@@H](C)CC)C(=O)N(C2CC2)CC(=O)N(C)[C@H]2C/C=C\CCN(C2=O)[C@@H](Cc2ccc(C(F)(F)F)cc2)C(=O)N(C)CC(=O)N[C@@H](CCc2cc(F)c(C(F)(F)F)c(F)c2)C(=O)N2C[C@H](OCC)C[C@H]2C(=O)NC2(CC(C)(C)C2)C(=O)N(C)[C@@H](CC2CC2)C(=O)N(C)[C@H](C(=O)N(C)C)CC(=O)N1C [PP2813]
- NRAS /KRAS [1, 5]: AA (a compound having 20 or more is denoted as AA)
- pIC50 [2]: 7.07
- HRAS /KRAS (HRAS wild-type protein; [6]): A (a compound having 10 or more and less than 20 is denoted as A)

SMILES: CC[C@H](C)[C@@H]1NC(=O)[C@H](CC(C)C)N(C)C(=O)C[C@@H](C(=O)N2CCOCC2)N(C)C(=O)[C@H](C2CCCC2)N(C)C(=O)C2(CCCC2)NC(=O)[C@@H]2CCCN2C(=O)[C@H](CCc2ccc(C(F)(F)F)c(Cl)c2)NC(=O)CN(C)C(=O)[C@H](Cc2ccc(C)cc2)N(CC2CCCC2)C(=O)CN(C)C(=O)CN(C)C1=O [PP0096] ([NMeL]I[Sar][Sar][X32][Sar][hPhe(3-Cl-4-CF3)]P[Ac5c][NMeGly(cPent)][NMeD]-Morpholide; lactam N-11)
- NRAS /KRAS [1, 5]: C (A compound having a KD ratio of 0.1 or more and less than 3 is denoted as C)
- pIC50 [2]: 7.16
- HRAS /KRAS (HRAS wild-type protein; [6]): C (A compound having a KD ratio of 0.1 or more and less than 3 is denoted as C)
